Reference: publication PMC9562341, “AI protein structure prediction-based modeling and mutagenesis of a protostome receptor and peptide ligands reveal key residues for their interaction” (The Journal of Biological Chemistry, 2022)
Where two headings read alike, the source gives them in different places. Where no end group is shown, it is not given here.

What was measured:
[1] = biological target: Aplysia leucokinin-like peptide receptor (Aplysia californica)
[2] = biological target: T1, ALKR (Aplysia leucokinin-like peptide receptor) (Aplysia californica, UniProt A0A977Q7Q2); test: IP1 accumulation assay, CHO-K1 cells transfected with ALKR; assay type: cell-based; conditions: for EC50: CHO-K1 transiently transfected with ALKR, no promiscuous Gαq, ALK1 n = 13, ALK2 n = 4, others n = 3; for Activation of ALKR (in words): IP1 accumulation in CHO-K1 transfected with ALKR; for Active (√ active / × not active): ALKR, tick or cross in column Active (EC50)
T1 sequence (A0A977Q7Q2 1-429): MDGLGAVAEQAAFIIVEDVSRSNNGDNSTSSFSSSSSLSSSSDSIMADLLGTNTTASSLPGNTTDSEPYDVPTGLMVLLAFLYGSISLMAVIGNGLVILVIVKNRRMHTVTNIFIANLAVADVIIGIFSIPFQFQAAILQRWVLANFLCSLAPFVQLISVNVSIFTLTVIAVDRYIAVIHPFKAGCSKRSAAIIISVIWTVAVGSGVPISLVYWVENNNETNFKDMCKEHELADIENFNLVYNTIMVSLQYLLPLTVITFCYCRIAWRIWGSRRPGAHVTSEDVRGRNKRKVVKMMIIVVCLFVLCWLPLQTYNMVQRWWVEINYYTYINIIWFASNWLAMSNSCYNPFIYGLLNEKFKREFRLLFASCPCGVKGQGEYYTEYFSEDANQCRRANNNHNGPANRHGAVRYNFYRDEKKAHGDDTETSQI
Description: To examine whether the native ALKs could activate the putative ALKR, we expressed the ALKR in Chinese hamster ovary K1 (CHO-K1) cells and examined ALK-mediated changes in the concentration of inositol monophosphate (IP1), a degradation product of the second messenger (inositol trisphosphate) in the Gq signaling pathway upon ligand-induced activation ([88]) (Figs. 4 and S5). […] All endogenous ALK peptides could activate ALKR in a dose-dependent manner (Fig. 4, A–C). […] The lowest EC50 values were for ALK8 (EC50 = 10 nM) and ALK9 (EC50 = 10 nM). The EC50 values for ALK1, ALK2, ALK3, ALK4, ALK5, ALK10, ALK13 were slightly higher than that of ALK9, but there was no statistically significant difference between them (Table S5).
(§1) IP1 accumulation assay measures concentration of IP1 ([88]), that is hydrolyzed from the second messenger, inositol trisphosphate, generated by Gαq pathway when GPCR expressed in CHO-K1 cells is activated by an appropriate ligand. We note two reasons that we selected mammalian CHO-K1 cells for assays for ligand-receptor (GPCR) activity: (1) there are no established molluscan cell lines available; (2) CHO-K1 cells have been extensively utilized not only for vertebrate GPCRs (e.g., ([97])) but also for invertebrate/protostome GPCRs, including other molluscs ([9], [11], [73]), annelids ([8]), jellyfish ([98]), Caenorrhabditis elegans ([99]), and arthropods ([76], [78], [79], [80]). Given that LKRs are only present in protostomes ([6], [7], [66], [67]), an additional advantage of using mammalian cells to assay ligand-receptor activity is that the effects of a possible native LKR in protostome cell lines could be excluded.
(§2) In order to express the Aplysia putative receptor transiently in CHO-K1, the cDNA was cloned into the mammalian expression vector pcDNA3.1(+). […] Transfection experiments were performed when the cells were grown to 70 to 90% confluence. For the ALKR, in each dish (60-mm diameter), 4 μg of the putative receptor plasmids [in pcDNA3.1(+)] were mixed with 400 μl of Opti-MEM (Gibco, 11058021), followed by the addition of 15 μl of Turbofect (Thermo Fisher Scientific, R0531). […] Thus, 3 μg of the putative receptor plasmids [in pcDNA3.1(+)] and 3 μg of promiscuous Gαq protein ([89]) [in pcDNA3.1(+)] were cotransfected in the above procedure for the Anopheles LKR ([8], [10]). The CHO-K1 cells with the reagents added above were mixed gently and incubated at room temperature for 15 min. The DNA/Turbofect mixture dropwise was then added to the dish, and the cells were incubated at 37 °C in 5% CO2 overnight. The next day, the cells were trypsinized and reseeded in opaque white 96-well half-area (Corning, 3688) or 384-well tissue culture–treated plates (Corning, 3570) at a density of 20,000 cells/well in F-12K and 10% FBS and incubated at 37 °C in 5% CO2 overnight. On the third day, the activation of the receptors was detected by monitoring IP1 accumulation using IP1 detection kit (Cisbio, 62IPAPEB) with a Tecan Spark plate reader. Except for using 0.5 × reagents for the anti-IP1-cryptate and IP1-d2 reagents, all other procedures were performed in accordance with the IP1 detection kit manufacturer’s instructions.

Anopheles LKR = biological target: T2, Anopheles LKR (Anopheles stephensi, UniProt Q694V6); test: IP1 accumulation assay, CHO-K1 cells cotransfected with Anopheles LKR and promiscuous Gαq; assay type: cell-based; conditions: log scale, mean ± SEM, n = 3
T2 sequence (Q694V6 1-573): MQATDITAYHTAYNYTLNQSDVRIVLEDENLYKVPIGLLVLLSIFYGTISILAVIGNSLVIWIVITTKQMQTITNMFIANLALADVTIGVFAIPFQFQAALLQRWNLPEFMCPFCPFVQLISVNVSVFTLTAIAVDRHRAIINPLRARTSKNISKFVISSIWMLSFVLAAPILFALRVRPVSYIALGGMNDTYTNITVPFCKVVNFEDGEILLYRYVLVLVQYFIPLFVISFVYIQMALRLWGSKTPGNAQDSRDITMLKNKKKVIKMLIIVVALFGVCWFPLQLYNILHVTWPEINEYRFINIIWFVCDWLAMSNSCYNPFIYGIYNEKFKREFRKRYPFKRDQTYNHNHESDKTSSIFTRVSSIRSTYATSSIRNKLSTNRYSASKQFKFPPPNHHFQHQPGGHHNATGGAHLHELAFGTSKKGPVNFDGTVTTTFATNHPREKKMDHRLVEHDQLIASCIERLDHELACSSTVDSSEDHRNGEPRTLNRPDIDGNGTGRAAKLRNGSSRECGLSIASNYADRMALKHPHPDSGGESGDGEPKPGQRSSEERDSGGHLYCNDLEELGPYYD
Description: Considering the similarity of leucokinin-like peptides in different species (Fig. 1), we sought to evaluate cross-activity between leucokinin peptides and their receptors in different species. We selected A. stephensi because it is a pest, and this would also provide an opportunity to determine if Aplysia LKs could be potentially used as insecticides ([67]). […] Thus, we cotransfected promiscuous Gαq with the Anopheles receptor, whereas there was no cotransfection of promiscuous Gαq for ALKR.
as §1
as §2, with “Except for using 0.5 × reagents for the anti-IP1-cryptate and IP1-d2 reagents, all other procedures were performed in accordance with the IP1 detection kit manufacturer’s instructions.” left out

[3] = IP1 accumulation, average, rounded to two significant figures, read-out: EC50 on ALKR
[4] = log scale, IP1 detection kit (Cisbio), mean ± SEM, inactive: greater than highest concentration tested, read-out: log [EC50] on ALKR (converted)

Row | Substance | EC50 [2, 4] | other results
1 | Aplysia leucokinin-like peptide 7 | – | EC50 of IP1 accumulation in CHO-K1 cells transfected with ALKR [1]: 92 nM
2 | PAFHSAS-NH2 [ALK1_A6] | > 10000 nM | EC50 [2, 3]: > 10000 nM; Activation of ALKR (in words) [2]: not active; Active (√ active / × not active) ([2]; IP1 accumulation): ×
3 | Aplysia leucokinin-like peptide 12 | – | EC50 of IP1 accumulation in CHO-K1 cells transfected with ALKR [1]: 330 nM
4 | PAFSAWS-NH2 [ALK3] | 11.7 nM | –
5 | DTPRYVSKQKFHSWG-NH2 [Anopheles LK1, reference compound] | 427 nM | EC50 (Anopheles LKR): 3.63 nM
6 | PAFHAWG-NH2 [ALK10] | 21.4 nM | –
7 | PAFNAWG-NH2 [ALK8] | 10.2 nM | EC50 (Anopheles LKR): 40.7 nM
8 | PAFQAWS-NH2 [ALK13] | 15.1 nM | –
9 | PAAFHAWS-NH2 [ALK11] | 61.7 nM | –
10 | PAAHSWS-NH2 [ALK1_A3] | > 10000 nM | EC50 [2, 3]: > 10000 nM; Activation of ALKR (in words) [2]: not active; Active (√ active / × not active) ([2]; IP1 accumulation): ×
11 | AAFHSWS-NH2 [ALK1_A1] | 141 nM | –
12 | AGFAPWA-NH2 [ALK4] | 19.5 nM | –
13 | PAFSAWN-NH2 [ALK5] | 10.5 nM | –
14 | PAFHAWS-NH2 [ALK2] | 21.4 nM | –
